Data published in patent US6703395B2, “Cyclin dependent kinase inhibitor” (priority 1998, dated 2004).

Columns and labels:
CEM cells [1] = assay: Apoptosis by phase contrast and electron microscopy; format: cell-based, human; conditions: 50 μm, 8 hours (FIG. 3)
CEM cells [2] = assay: Apoptosis and cell cycle analysis by FACS (DNA content); format: cell-based, human; conditions: 50 μm (FIG. 4), method 70 μM, 3-24 hours
Procedure: Cells (1×10^6/ml) were cultured in 6-well plates with or without 70 μM concentration of test compound at 37° C. and 5% CO2 for 3-24 hours. Following incubation, cells were pelleted, washed in Hank's buffered salt solution and fixed in 96% ethanol overnight at −20° C. Low molecular weight apoptotic DNA was extracted in citrate buffer. RNA was cleaved using RNAse (50 mg/ml).

[3] = system: Human T-lymphoblastic leukemia cell line CEM; assay: MTT in vitro cytotoxicity assay, CEM; format: cell-based; conditions: 72 hours incubation
Excerpt: (§1) One of the parameters used as the basis for colorimetric assays is the metabolic activity of viable cells. For example, a microtiter assay which uses the tetrazolium salt 3-[4,5-Dimethylthiazol-2-yl]-2,5-diphenyltetrazolium bromide; Thiazolyl blue (hereinafter MTT) is now widely used to quantitate cell proliferation and cytotoxicity, for instance, in drug screening programs and in chemosensitivity testing. Because tetrazolium salts are cleaved only by metabolically active cells, these assays detect viable cells exclusively. In the case of the MTT-assay, yellow soluble tetrazolium salt is reduced to colored water-insoluble formazan salt. After it is solubilized, the formazan formed can easily and rapidly be quantified in a conventional ELISA plate reader at 570 nm (maximum absorbance). The quantity of reduced formazan corresponds to number of vital cells in the culture. […]
(§2) The cell suspensions that were prepared and diluted according to the particular cell type and the expected target cell density (2,500-30,000 cells per well based on cell growth characteristics) were added by pipet (80 μl) into 96 well microtiter plates. […] Usually, test compound were evaluated at six 4-fold dilutions. […] The optical density (OD) was measured at 540 nm with the Labsystem iEMS Reader MF (UK). […]

[4] = system: promyelocytic leukemia HL-60; assay: MTT in vitro cytotoxicity assay, HL-60; format: cell-based, human
Excerpt: as §1, §2

B16 melanoma [5] = assay: MTT in vitro cytotoxicity assay, B16; format: cell-based, mouse
Excerpt: as §1, §2

B16F10 melanoma = assay: MTT in vitro cytotoxicity assay, B16F10; format: cell-based, mouse
Excerpt: as §1, §2

[6] = system: human breast carcinoma cell line MCF-7; assay: MTT in vitro cytotoxicity assay, MCF7; format: cell-based
Excerpt: as §1, §2

[7] = system: cervical carcinoma cells HELA; assay: MTT in vitro cytotoxicity assay, HELA; format: cell-based; conditions: 72 hours incubation
Excerpt: as §1, §2

[8] = system: mouse immortalized bone marrow macrophages B10A.4; assay: MTT in vitro cytotoxicity assay, B10#4; format: cell-based
Excerpt: as §1, §2

[9] = system: mouse immortalized bone marrow macrophages B2.4; assay: MTT in vitro cytotoxicity assay, B2#4; format: cell-based; conditions: 72 hours incubation
Excerpt: as §1, §2

U937 = assay: MTT in vitro cytotoxicity assay, U937; format: cell-based
Excerpt: (§3) One of the parameters used as the basis for colorimetric assays is the metabolic activity of viable cells. For example, a microtiter assay which uses the tetrazolium salt 3-[4,5-Dimethylthiazol-2-yl]-2,5-diphenyltetrazolium bromide; Thiazolyl blue (hereinafter MTT) is now widely used to quantitate cell proliferation and cytotoxicity, for instance, in drug screening programs and in chemosensitivity testing. Because tetrazolium salts are cleaved only by metabolically active cells, these assays detect viable cells exclusively. In the case of the MTT-assay, yellow soluble tetrazolium salt is reduced to colored water-insoluble formazan salt. After it is solubilized, the formazan formed can easily and rapidly be quantified in a conventional ELISA plate reader at 570 nm (maximum absorbance). The quantity of reduced formazan corresponds to number of vital cells in the culture.
as §2, with “plates. Inoculates were allowed a preincubation period of 24 hours at 37° C. and 5% CO2 for stabilization.” for “plates.”

L1210 leukemia = assay: MTT in vitro cytotoxicity assay, L1210; format: cell-based, mouse
Excerpt: as §1, §2

P388D1 leukemia [10] = assay: MTT in vitro cytotoxicity assay, P388D1; format: cell-based, mouse
Excerpt: as §1, §2

mouse fibroblasts NIH3T3 = assay: MTT in vitro cytotoxicity assay, NIH3T3; format: cell-based
Excerpt: as §1, §2

normal human lymphocytes = assay: MTT in vitro cytotoxicity assay, lymphocytes; format: cell-based; conditions: 72 hours incubation
Excerpt: as §3
as §2, with “plates. Inoculates were allowed a preincubation period of 24 hours at 37° C. and 5% CO2 for stabilization.” for “plates.”

tumor cell lines = assay: MTT in vitro cytotoxicity, panel of tumor cell lines; format: cell-based; conditions: summary of Table 1
Excerpt: as §1, §2

P388D1 leukemia [11] = assay: In vivo antitumor activity, intraperitoneally transplanted P388D1 leukemia; conditions: DBA-2 mice, 1 mg 4x daily for 7 days
B16 melanoma [12] = assay: In vivo antitumor activity, subcutaneously inoculated B16 melanoma; conditions: C57BL-10 mice, 1 mg subcutaneously 4x daily for 7 days
[13] = mouse
Procedure: in vivo anti-cancer activity assays: water insoluble compounds: 50% DMSO, 10 mM HCl in saline.
Cells were trypsinized, washed in PBS and suspended in PBS with 0.5% bovine serum albumin. 0.5 miilion cells from this suspension was applied subcutaneously to C57BL-10 mice. […] The compounds (1 mg) were applied subcutaneously 4× daily, for 7 days.
Cells were scraped, washed in PBS and suspended in PBS with 0.5% bovine serum albumin. 0.5 million cells from this suspension was applied intraperitoneally to DBA-2 mice. […] The compounds (1 mg) were applied subcutaneously 4× daily, for 7 days.

CCC(CO)Nc1nc(NCc2ccccc2)c2ncn(C(C)C)c2n1 (stereo not drawn) [ROSC, 2-[(1-ethyl-2-hydroxyethyl)amino]-6-benzylamino-9-isopropylpurine]
apoptosis by phase contrast / electron microscopy (CEM cells [1]): apoptosis had occurred | apoptosis by flow cytometric analysis of DNA content (CEM cells [2]): Extensive apoptosis

Cn1cnc2c(NCc3ccccc3)nc(NCCO)nc21 [OC, 2-(2-hydroxyethylamino)-6-benzylamino-9-methylpurine]
IC50 ([3]; Homo sapiens): 20.7 µM | IC50 ([4]; Homo sapiens, HL-60, 72 hours incubation): 28.9 µM | IC50 (B16 melanoma [5]; Mus musculus, B16, 72 hours incubation): 50.4 µM | IC50 (B16F10 melanoma; Mus musculus, B16-F10, 72 hours incubation): 20.6 µM | IC50 ([6]; Homo sapiens, MCF7, 72 hours incubation): 30.5 µM | IC50 ([7]; Homo sapiens, HeLa): 100 µM | IC50 ([8]; Mus musculus, B104, 72 hours incubation): 20.3 µM | IC50 ([9]; Mus musculus, Bone marrow macrophage): 8.1 µM | IC50 (U937; Homo sapiens, U-937, 72 hours incubation): 63.8 µM | IC50 (L1210 leukemia; Mus musculus, L1210, 72 hours incubation): 23.5 µM | IC50 (P388D1 leukemia [10]; Mus musculus, P388D1, 72 hours incubation): 14.5 µM | IC50 (mouse fibroblasts NIH3T3; Mus musculus, NIH3T3, 72 hours incubation): 267 µM | IC50 (normal human lymphocytes; Homo sapiens, Lymphocyte): 267 µM | toxicity to tumor cells (in words) (tumor cell lines): moderately effective | in vivo activity, P388D1 leukemia model (survival) (P388D1 leukemia [11]): significant in vivo activity | in vivo activity, B16 melanoma model (medium survival time) (B16 melanoma [12]): significant in vivo activity | apoptosis by phase contrast / electron microscopy (CEM cells [1]): apoptosis had occurred

CC(C)=CCNc1ncnc2nc[nH]c12 [IP, isopentenyladenine]
IC50 [3]: 169 µM | IC50 ([4]; 72 hours incubation): 157 µM | IC50 (B16 melanoma [5]; 72 hours incubation): 267 µM | IC50 (B16F10 melanoma; 72 hours incubation): 267 µM | IC50 ([6]; 72 hours incubation): 267 µM | IC50 [7]: 267 µM | IC50 ([8]; 72 hours incubation): 267 µM | IC50 [9]: 267 µM | IC50 (U937; 72 hours incubation): 267 µM | IC50 (L1210 leukemia; 72 hours incubation): 267 µM | IC50 (P388D1 leukemia [10]; 72 hours incubation): 267 µM | IC50 (mouse fibroblasts NIH3T3; 72 hours incubation): 267 µM | IC50 (normal human lymphocytes): 267 µM | toxicity to tumor cells (in words) (tumor cell lines): did not show significant toxicity | in vivo activity, P388D1 leukemia model (survival) (P388D1 leukemia [11]): no activity | in vivo activity, B16 melanoma model (medium survival time) (B16 melanoma [12]): no activity | toxicity in vivo / tissue necrosis at the site of application [13]: no activity and toxicity
